Source: ChEMBL document CHEMBL5113491, “Discovery of N-benzylarylamide derivatives as novel tubulin polymerization inhibitors capable of activating the Hippo pathway” (Eur J Med Chem, 2022)
Calls of active or inactive are those of the source. The rule behind the calls is not given here.

Assays:
[1] = test system: MGC-803; assay: Antiproliferative activity against human MGC-803 cells assessed as inhibition of cell growth measured after 48 hrs by MTT assay; format: functional, cell-based; settings: MGC-803, 48 h
[2] = test system: KYSE-450; assay: Antiproliferative activity against human KYSE-450 cells assessed as inhibition of cell growth measured after 48 hrs by MTT assay; format: functional, cell-based; settings: KYSE-450, 48 h
[3] = test system: HGC-27; assay: Antiproliferative activity against human HGC-27 cells assessed as inhibition of cell growth measured after 48 hrs by MTT assay; format: functional, cell-based; settings: HGC-27, 48 h
[4] = test system: SGC-7901; assay: Antiproliferative activity against human SGC-7901 cells assessed as inhibition of cell growth measured after 48 hrs by MTT assay; format: functional, cell-based; settings: SGC-7901, 48 h
[5] = test system: DU-145; assay: Antiproliferative activity against human DU-145 cells assessed as inhibition of cell growth measured after 48 hrs by MTT assay; format: functional, cell-based; settings: DU-145, 48 h
[6] = test system: A549; assay: Antiproliferative activity against human A549 cells assessed as inhibition of cell growth measured after 48 hrs by MTT assay; format: functional, cell-based; settings: A549, 48 h
[7] = test system: ECa-109 cell line; assay: Antiproliferative activity against human EC109 cells assessed as inhibition of cell growth measured after 48 hrs by MTT assay; format: functional, cell-based; settings: ECa-109, 48 h
[8] = test system: SMMC-7721; assay: Antiproliferative activity against human SMMC-7721 cells assessed as inhibition of cell growth measured after 48 hrs by MTT assay; format: functional, cell-based; settings: SMMC-7721, 48 h
[9] = test system: MGC-803; assay: Antiproliferative activity against human MGC-803 cells assessed as inhibition of cell growth measured upto 72 hrs by MTT assay; format: functional, cell-based; settings: dose 15-45 µmol/L, DDE = dose-dependent effect
[10] = test system: MGC-803; assay: Antiproliferative activity against human MGC-803 cells assessed as inhibition of cell growth at 15 to 45 […] by MTT assay; format: functional, cell-based; settings: dose 15-45 µmol/L, time <= 72.0 hrs, TDE = time-dependent effect
[11] = test system: SGC-7901; assay: Antiproliferative activity against human SGC-7901 cells assessed as inhibition of cell growth measured upto 72 hrs by MTT assay; format: functional, cell-based; settings: dose 15-45 µmol/L, DDE = dose-dependent effect
[12] = test system: SGC-7901; assay: Antiproliferative activity against human SGC-7901 cells assessed as inhibition of cell growth at 15 to 45 […] by MTT assay; format: functional, cell-based; settings: dose 15-45 µmol/L, time <= 72.0 hrs, TDE = time-dependent effect
[13] = Cytotoxicity against human HUVEC cells assessed as reduction in cell viability measured after 48 hrs by MTT assay; format: toxicity, cell-based
[14] = molecular target: T1, Tubulin beta (Homo sapiens) (UniProt P68371+Q9H4B7+Q13509+P04350+Q3ZCM7+P07437+Q13885+Q9BVA1+Q9BUF5+A6NNZ2); assay: Binding affinity to beta-tubulin colchicine binding site in human MGC-803 cells assessed as inhibition of EBI-beta-tubulin adduct band formation preincubated for 2 hrs followed by EBI addition and measured after 2 hrs by EBI competition based Western blotting analysis; format: cell-based; settings: dose 1-10 µM, time 4.0 hrs, DDE = dose-dependent effect
[15] = molecular target: T1, Tubulin beta (Homo sapiens); assay: Binding affinity to beta-tubulin colchicine binding site in human SGC-7901 cells assessed as inhibition of EBI-beta-tubulin adduct band formation preincubated for 2 hrs followed by EBI addition and measured after 2 hrs by EBI competition based Western blotting analysis; format: cell-based; settings: dose 1-10 µM, time 4.0 hrs, DDE = dose-dependent effect
[16] = molecular target: T2, Tubulin (Homo sapiens) (UniProt P68371+Q9H4B7+P0DPH7+P68366+Q13509+Q71U36+P04350+Q3ZCM7+P07437+P68363+Q9BQE3+Q6PEY2+Q13885+Q9BVA1+Q9BUF5); assay: Induction of microtubule disruption in human MGC-803 cells at 25 nmol/L measured after 48 hrs by DAPI staining based immunofluorescence assay; format: cell-based
[17] = molecular target: T2, Tubulin (Homo sapiens); assay: Induction of microtubule disruption in human MGC-803 cells measured after 48 hrs by DAPI staining based immunofluorescence assay; format: cell-based; settings: dose 15-45 nmol/L, DDE = dose-dependent effect
[18] = test system: SGC-7901; assay: Activation of MST in human SGC-7901 cells assessed as increase in MST phosphorylation measured after 48 hrs by Western blot analysis; format: cell-based; settings: filed as activator, dose 15-45 nmol/L, DDE = dose-dependent effect
[19] = test system: MGC-803; assay: Downregulation of YAP protein expression in human MGC-803 cells measured after 48 hrs by Western blot analysis; format: functional, cell-based; settings: dose 15-45 nmol/L, DDE = dose-dependent effect
[20] = test system: MGC-803; assay: Downregulation of TAZ protein expression in human MGC-803 cells measured after 48 hrs by Western blot analysis; format: functional, cell-based; settings: dose 15-45 nmol/L, DDE = dose-dependent effect
[21] = test system: SGC-7901; assay: Inhibition of colony formation in human SGC-7901 cells measured after 7 days; format: functional, cell-based; settings: dose 6-30 nmol/L, time 7.0 day, DDE = dose-dependent effect
[22] = test system: MGC-803; assay: Induction of cell cycle arrest in human MGC-803 cells assessed as increase in G2/M phase cells at 45 nmol/L measured after 24 hrs by flow cytometry (reference value: 19.38%); format: functional
[23] = test system: SGC-7901; assay: Induction of cell cycle arrest in human SGC-7901 cells assessed as increase in G2/M phase cells at 45 nmol/L measured after 24 hrs by flow cytometry (reference value: 7.04%); format: functional
[24] = test system: MGC-803; assay: Induction of G2/M phase cell cycle arrest in human MGC-803 cells assessed as decrease in cyclin B1 expression at 15 to 45 nmol/L measured after 48 hrs by Western blot analysis; format: functional, cell-based; settings: dose 15-45 nmol/L
[25] = test system: SGC-7901; assay: Induction of G2/M phase cell cycle arrest in human SGC-7901 cells assessed as decrease in p-cdc2 (T161) expression at 15 to 45 nmol/L measured after 48 hrs by Western blot analysis; format: functional, cell-based; settings: dose 15-45 nmol/L
[26] = test system: SGC-7901; assay: Induction of G2/M phase cell cycle arrest in human SGC-7901 cells assessed as increase in p-Histone H3 expression at 15 to 45 nmol/L measured after 48 hrs by Western blot analysis; format: functional, cell-based; settings: dose 15-45 nmol/L
[27] = Induction of cell apoptosis in human MGC-803 cells assessed as increase in apoptotic cells at 45 nmol/L measured after 48 hrs by Annexin V/PI staining based flow cytometric analysis (reference value: 21.96%); format: functional
[28] = Induction of cell apoptosis in human SGC-7901 cells assessed as increase in apoptotic cells at 45 nmol/L measured after 48 hrs by Annexin V/PI staining based flow cytometric analysis (reference value: 9.28%); format: functional
[29] = test system: MGC-803; assay: Induction of apoptosis in human MGC-803 cells assessed as decrease in Bcl-xl protein expression measured after 48 hrs by Western blot analysis; format: functional, cell-based; settings: dose 15-45 nmol/L, DDE = dose-dependent effect
[30] = test system: MGC-803; assay: Induction of apoptosis in human MGC-803 cells assessed as decrease in Mcl-1 protein expression measured after 48 hrs by Western blot analysis; format: functional, cell-based; settings: dose 15-45 nmol/L, DDE = dose-dependent effect
[31] = test system: MGC-803; assay: Induction of apoptosis in human MGC-803 cells assessed as increase in cleaved caspase 7 expression at 15 to 45 nmol/L measured after 48 hrs by Western blot analysis; format: functional, cell-based; settings: dose 15-45 nmol/L
[32] = test system: SGC-7901; assay: Induction of apoptosis in human SGC-7901 cells assessed as increase in cleaved caspase 7 expression at 15 to 45 nmol/L measured after 48 hrs by Western blot analysis; format: functional, cell-based; settings: dose 15-45 nmol/L
[33] = test system: SGC-7901; assay: Induction of apoptosis in human SGC-7901 cells assessed as increase in cleaved caspase 9 expression at 15 to 45 nmol/L measured after 48 hrs by Western blot analysis; format: functional, cell-based; settings: dose 15-45 nmol/L
[34] = test system: MGC-803; assay: Induction of apoptosis in human MGC-803 cells assessed as increase in cleaved PARP expression at 15 to 45 nmol/L measured after 48 hrs by Western blot analysis; format: functional, cell-based; settings: dose 15-45 nmol/L

IC50 [1]: 27 nM
IC50 [4]: 25 nM
IC50 [5]: 81 nM
IC50 [6]: 59 nM
IC50 [8]: 43 nM
Activity [14]: Dde
Activity [15]: Dde
Activity [16]: Active
Activity [17]: Dde
Structure (SMILES): C/C=C/C(=O)N(Cc1ccc(OC)c(O)c1)c1cc(OC)c(OC)c(OC)c1
IC50 [2]: 67 nM
IC50 [3]: 33 nM
IC50 [7]: 85 nM
Activity [9]: Dde
Activity [10]: Tde
Activity [11]: Dde
Activity [12]: Tde
IC50 at 48 h [13]: 48500 nM
Activity [18]: Dde
Activity [19]: Dde
Activity [20]: Dde
inhibition [21]: Dde
Activity [22]: 76.97%
Activity [23]: 80.89%
Activity [24]: Active
Activity [25]: Active
Activity [26]: Active
Activity [27]: 76.08%
Activity [28]: 63.51%
Activity [29]: Dde
Activity [30]: Dde
Activity [31]: Active
Activity [32]: Active
Activity [33]: Active
Activity [34]: Active
